The record followed here is US5034548A, “Steroid derivatives useful as hypocholesterolemics” (E. I. Du Pont de Nemours and Company, priority 1990, dated 1991).

Test [1] in a line: Lowering blood (plasma) cholesterol levels in hamsters. It is filed as in vivo, Male Golden Syrian hamsters. As to conditions: 0.2% (w/w) in diet, 7 days, N = 16, means±SEM. The method, then: Male Golden Syrian hamsters (50-60 grams) were obtained from Charles River, Inc. (Wilmington, Mass.). Animals were housed in individual suspension cages and were maintained on a light cycle consisting of 12 hours of light followed by 12 hours of dark. Animals were allowed free access to water and feed (Agway ground chow, RMH 3200, Agway, Syracuse, N.Y.) containing 1% (w/w) corn oil) for a minimum of 4 weeks. Following this stabilization period a sample of blood was collected by orbital sinus bleeding under light ether anesthesia into heparinized capillary tubes. Plasma was separated by centrifugation (600×g for 10 minutes) and plasma cholesterols were determined by an autoanalyzer (Centrifichem 600, Baker Instruments, Allentown, Pa.). Based upon measured plasma cholesterol values, the animals were randomized into two groups such that the mean plasma cholesterol values were identical for both groups.
Animals in the two groups were then placed on one of two diets: (1) Diet A, consisting of ground chow plus 1% (w/w) corn oil, as described above; or (2) Diet B, consisting of Diet A plus 0.2% (w/w) of a test compound. Animals on Diet B, the treated animals, were allowed free access to feed and water, while animals on Diet A were pair-matched with Diet B animals and served as pair-fed controls. […] Total plasma cholesterol levels were determined as described above. […]

The target in test [2] is T1, Lanosta-8,24-dien-3β-ol 14α-methyl demethylase (Rattus norvegicus, UniProt Q64654).
T1 construct: determined in rat depatic microsomal preparations; from tissue; host or cells: rat hepatic microsomes
T1 sequence (Q64654 1-503): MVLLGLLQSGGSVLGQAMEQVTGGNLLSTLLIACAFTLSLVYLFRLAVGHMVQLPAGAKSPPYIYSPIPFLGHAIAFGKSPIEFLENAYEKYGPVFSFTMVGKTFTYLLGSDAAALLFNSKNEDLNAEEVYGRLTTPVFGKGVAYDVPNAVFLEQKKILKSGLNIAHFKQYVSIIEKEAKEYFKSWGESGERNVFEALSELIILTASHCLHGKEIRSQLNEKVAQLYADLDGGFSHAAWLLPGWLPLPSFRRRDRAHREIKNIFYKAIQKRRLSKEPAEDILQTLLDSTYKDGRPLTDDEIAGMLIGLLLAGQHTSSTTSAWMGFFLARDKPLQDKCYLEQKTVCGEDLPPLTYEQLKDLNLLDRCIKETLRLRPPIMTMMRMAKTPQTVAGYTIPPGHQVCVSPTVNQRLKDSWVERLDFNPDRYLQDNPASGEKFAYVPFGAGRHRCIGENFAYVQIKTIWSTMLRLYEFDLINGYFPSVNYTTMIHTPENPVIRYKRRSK
Briefly: Lanosta-8,24-dien-3β-ol 14α-Methyl Demethylase Inhibition Assay. The class given is biochemical. As to conditions: rat hepatic microsomal preparations, 100 μM lanost-8-en-3β-ol substrate, pH not given; test compounds 0 to 100 μM. Here is the method: Lanosta-8,24-dien-3β-ol 14α-methyl demethylase activity was determined in rat depatic microsomal preparations as described in Trzaskos et al., J. Biol. Chem., 261, 16937-16942 (1986). Specifically, test compounds were added to assay mixtures as detergent suspensions with substrate employing 5 mg Triton WR-1339, 100 μM lanost-8-en-3β-ol substrate, and test compounds ranging from 0 to 100 μM. The inhibitor/substrate/detergent suspension was incubated with 2 mg microsomal protein for 5 min at 37° followed by a 10 min incubation initiated by the addition of cofactors required for the reaction. […] Inhibition values are expressed as the amount of compound required to inhibit lanosta-8,24-dien-3β-ol 14α-methyldemethylase activity by 50% relative to that of the controls.

The test system of test [3] is 3-Hydroxy-3-Methylglutaryl Coenzyme A Reductase (HMGR). As to the kind of experiment: HMGR Suppression Assay in digitonin-permeabilized CHO cells. It is filed as cell-based, Chinese Hamster. As to conditions: 6 hr incubation at 37°, amount to suppress HMGR activity by 50% relative to controls. The method, then: The ability of the compounds of Formula I to suppress the activity of HMGR, the rate limiting enzyme of cholesterol biosynthesis, was tested as follows. Chinese Hamster Ovary (CHO) cells were divided twice weekly and were maintained in McCoy's 5A medium supplemented with 1% Cab-O-Sil delipidated Fetal Bovine Serum (FBS) (obtained from Gibco Laboratories, Chagrin Falls, Ohio). Cells were harvested during the logarithmic phase of growth and cell cultures were prepared by adding 0.5×10^6 cells to wash well in a 24 well cluster dish (obtained from Costar, Data Packaging Corp., Cambridge, Mass.) employing 1 mL of the above medium per each well. […] Control cells were treated in an identical fashion to those which received test compound, except they were incubated with the BSA and ethanol suspension only.
Specifically, the medium in each well was aspirated and the cells rinsed with a 50 mM solution of phosphate buffered saline (PBS). One mL of 30 μg/mL of digitonin in CSK buffer (prepared using 10 mM Pipes [piperazine-N,N'-bis(2-ethansulfonic)acid'], 100 mM KCl, 2.5 mM MgCl2, 300 mM sucrose, 1 mM EGTA, pH 6.8) was added to each well and incubated for 10 min at 22° to permeabilize the cells. The buffer was carefully aspirated and the wells were rinsed twice each time with 1 mL of PBS. HMGR activity was measured directly by adding 75 μL of PIB buffer (50 mM potassium phosphate, 1 mM Na2 EDTA, 10 mM dithiothreitol, pH 7.4) to each well and incubating the cells for 30 minutes at 37° as described above. […] HMG-Coenzyme A (15 DPM/pmol), pH 7.4. The assay mixture was incubated for 30 min at 37° and terminated by the addition of 70 μL of [^3 H]-mevalonic acid (35,000 DPM/assay), 0.15 mg/mL in 3 N HCl. The reaction was left to lactonize for an additional 30 min at 37° or overnight at room temperature.
Reaction products were separated by thin layer chromatography on silica gel G (obtained from Analtech, Newark, Del.) developed in an unsaturated environment with acetone:benzene (3:2, v:v). The band corresponding to mevalonolactone was identified by exposure to iodine vapor and was scraped into counting vials. The extent of conversion of starting substrate, HMG-CoA, to mevalonic acid was determined by liquid scintillation counting in Biofluor (obtained from New England Nuclear, Boston, Mass). Corrections for recovery and blank values were made for each sample. Protein determinations were made by the Bio-rad (Bio-Rad, Richmond, Cal.) dye binding assay according to the manufacturer's instruction using bovine serum albumin as standard. Cellular protein was solubilized from culture dishes by the addition of 20 μL of 16 N KOH and assayed directly for protein amount. Suppression values are expressed as the amount of compound required to suppress HMGR activity by 50% relative to that of the controls.

Test [4] relates to cholesterol synthesis in CHO cells. Briefly: De novo cholesterol synthesis: incorporation of radiolabeled acetate into cholesterol in CHO cells. It is filed as cell-based, Chinese Hamster. As to conditions: for Cholesterol Synthesis (DPMs): 17 hr + 2 hr with [14C]-acetic acid, Control 38855. Here is the method:
The ability of the compounds of Formula I to decrease de novo cholesterol synthesis was tested by measuring the incorporation of radiolabeled acetate into cholesterol synthesized in CHO cells. To conduct this experiment, CHO cells were plated at 0.3×10^6 cells per 15×60 mm tissue culture dish in 5 mL of McCoy's modified medium (Gibco Laboratories) containing 1% Cab-O-Sil delipidated FBS and incubated for 48 hours at 37° in a 5% CO2, 95% air environment. Test compounds in a 2.5% suspension of BSA (fatty acid free) in ethanol were then added to the cultures such that the final ethanol and BSA concentrations were 0.5% and […], respectively. Control cultures received ethanol and BSA alone. The cultures containing test compounds were then incubated at 37° in a 5% Co, 95% air environment for 17 hr before the addition of [1,2-^14 C]-acetic acid (57 μCi/mmol); obtained from New England Nuclear, Boston, Mass.) at a concentration of 10 μCi/mL for 2 additional hr.
The cells were harvested by washing the cells twice with 5 mL of cold PBS and scraping the cells into 1 mL PBS. The cell-containing solution was then transferred to 15 mL extraction tubes and treated with 1 mL of 90% methanol (containing 15% KOH, 100 μg/mL butylated hydroxytoluene). All samples were saponified for 1 hr at 80° and the non-saponifiable lipids then extracted with petroleum ether. The petroleum ether fractions were dried under nitrogen, resuspended in ethanol, counted and analyzed by reverse phase HPLC at 45° using an Ultrashpere Octyl column (from Altex Scientific Inc., Berkeley, Calif.) with a mobile phase of acetonitrile:methanol:water (44:44:12). The amount of cholesterol synthesis is measured by the amount of radiolabeled acetate incorporated into the cholesterol peak. The percent of cholesterol synthesis in the treated culture is calculated based upon the control culture.

`CC(C)CCC[C@@H](C)[C@H]1CC(=NO)[C@@]2(C)C3=CC[C@H]4C(C)(C)[C@@H](O)CC[C@]4(C)[C@H]3CC[C@]12C` [Compound 31b, 3β-hydroxy-lanost-7-en-15-oxime]: in test [1] (pair-fed control 136.0 ± 4.8), the “Plasma Cholesterol, Treated” value stood at 69.6 ± 2.6 mg/dL. In addition, the IC50 (as a rule, the point on the concentration scale where inhibition reaches its midpoint) in test [2] turned out to be 55000 nM; in test [3] it was 200 nM. Besides, the “Cholesterol Synthesis (DPMs)” value in test [4] (0.5 μM) amounted to 24064 DPMs. Moreover, in test [4] (Cricetulus griseus, 19 h, 0.5 μM, percent of control culture (100)), the activity at 0.5 µM was 62%.
`CC(C)CCC[C@@H](C)[C@H]1C[C@H](O)[C@@]2(O)C3=C(CC[C@]12C)[C@@]1(C)CC[C@H](O)C(C)(C)[C@@H]1CC3` [Compound 34a, 4,4-dimethyl-5α-cholest-8-en-3β,14α,15α-triol]: the “Plasma Cholesterol, Treated” value in test [1] (pair-fed control 136.0 ± 3.5) is 119.3 ± 2.3 mg/dL. Further, the IC50 in test [2] worked out at 3000 nM; in test [3], 500 nM. For the same molecule, the “Cholesterol Synthesis (DPMs)” value in test [4] (1 μM) was found to be 16521 DPMs. Moreover, the activity at 1 µM in test [4] (Cricetulus griseus, 19 h, 1 μM, percent of control culture (100)) is 43%.
